Data published in patent publication US20090099167A1, “Organic compounds” (Novartis Institutes for Biomedical Research, priority 2004, published 2009).

target: T1, human EphB4 (Homo sapiens, UniProt P54760); experiment: Cellular assay EphB4 receptor autophosphorylation, transfected A375 cells, sandwich ELISA; type: cell-based; details: inhibition of autophosphorylation of EphB4 kinase, Table 6
T1 construct: expressed in transfected cells; host or cells: A375 human melanoma cells (ATCC CRL-1619)
T1 sequence (P54760 16-987): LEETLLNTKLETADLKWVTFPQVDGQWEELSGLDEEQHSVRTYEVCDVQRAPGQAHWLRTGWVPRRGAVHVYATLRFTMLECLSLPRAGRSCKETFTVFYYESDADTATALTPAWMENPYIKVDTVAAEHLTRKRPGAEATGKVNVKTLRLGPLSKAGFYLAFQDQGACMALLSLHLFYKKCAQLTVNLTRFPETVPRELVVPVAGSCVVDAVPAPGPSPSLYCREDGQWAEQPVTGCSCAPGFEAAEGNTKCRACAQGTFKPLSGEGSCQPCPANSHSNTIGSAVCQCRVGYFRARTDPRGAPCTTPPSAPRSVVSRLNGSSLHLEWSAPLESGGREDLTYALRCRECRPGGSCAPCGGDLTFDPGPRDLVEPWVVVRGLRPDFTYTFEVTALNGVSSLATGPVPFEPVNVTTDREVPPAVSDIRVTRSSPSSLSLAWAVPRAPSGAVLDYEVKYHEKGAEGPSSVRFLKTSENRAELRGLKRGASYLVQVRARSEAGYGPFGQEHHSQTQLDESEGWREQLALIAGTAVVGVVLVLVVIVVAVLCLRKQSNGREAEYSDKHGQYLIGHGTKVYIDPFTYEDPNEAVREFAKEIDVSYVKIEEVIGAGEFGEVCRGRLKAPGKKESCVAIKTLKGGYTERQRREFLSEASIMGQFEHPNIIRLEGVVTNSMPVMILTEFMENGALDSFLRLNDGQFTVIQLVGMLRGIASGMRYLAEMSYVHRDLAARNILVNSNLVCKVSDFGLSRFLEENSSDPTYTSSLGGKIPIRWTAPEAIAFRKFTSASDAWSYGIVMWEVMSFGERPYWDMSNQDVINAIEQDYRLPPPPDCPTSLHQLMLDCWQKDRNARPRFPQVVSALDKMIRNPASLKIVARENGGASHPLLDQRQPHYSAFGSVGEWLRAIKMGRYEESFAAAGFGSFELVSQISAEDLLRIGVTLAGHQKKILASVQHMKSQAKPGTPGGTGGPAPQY
Protocol: The inhibition of EphB4 receptor autophosphorylation can be confirmed with an in vitro experiment in cells such as transfected A375 human melanoma cells (ATCC Number: CRL-1619), which permanently express human EphB4 (SwissProt AccNo P54760), are seeded in complete culture medium (with 10% fetal calf serum=FCS) in 6-well cell-culture plates and incubated at 37° C. under 5% CO2 until they show about 90% confluency. The compounds to be tested are then diluted in culture medium (without FCS, with 0.1% bovine serum albumin) and added to the cells. (Controls comprise medium without test compounds). Ligand induced autophosphorylation is induced by the addition of 1 microg/ml soluble ephrinB2-Fc (s-ephrinB2-Fc: R&D Biosystems, CatNr 496-EB) and 0.1 microM ortho-vanadate. After a further 20 minutes incubation at 37° C., the cells are washed twice with ice-cold PBS (phosphate-buffered saline) and immediately lysed in 200 μl lysis buffer per well. The lysates are then centrifuged to remove the cell nuclei, and the protein concentrations of the supernatants are determined using a commercial protein assay (PIERCE). The lysates can then either be immediately used or, if necessary, stored at −20° C.
A sandwich ELISA is carried out to measure the EphB4 phosphorylation: To capture phosphorylated EphB4 protein 100 ng/well of ephrinB2-Fc (s-ephrinB2-Fc: R&D Biosystems, CatNr 496-EB) is immobilized MaxiSorb (Nunc) ELISA plates. The plates are then washed and the remaining free protein-binding sites are saturated with 3% TopBlock® (Juro, Cat. # TB232010) in phosphate buffered saline with Tween 20° (polyoxyethylen(20)sorbitane monolaurate, ICI/Uniquema) (PBST). The cell lysates (100 μg protein per well) are then incubated in these plates for 1 h at room temperature. After washing the wells three times with PBS an antiphosphotyrosine antibody coupled with alkaline phosphatase (PY 20 Alkaline Phosphate conjugated: ZYMED, Cat Nr03-7722) is added and incubated for another hour. […] The difference between the signal of the positive control (stimulated with vanadate and s-ephrinB2-Fc) and that of the negative control (not stimulated) corresponds to maximal EphB4 phosphorylation (=100%). The activity of the tested substances is calculated as percent inhibition of maximal EphB4 phosphorylation, wherein the concentration of substance that induces half the maximum inhibition is defined as the IC50 (inhibitory dose for 50% inhibition). […] The mice are treated with the test compound (e.g. 25, 50 or 100 mg/kg p.o. once daily) or vehicle starting on the day of implantation of the chamber and continuing for 4 days after. At the end of the treatment, the mice are killed, and the chambers are removed. The vascularized tissue growing around the chamber is carefully removed and weighed, and the blood content is assessed by measuring the hemoglobin content of the tissue (Drabkins method; Sigma, Deisenhofen, Germany). It has been shown previously that these growth factors induce dose-dependent increases in weight and blood content of this tissue growing (characterized histologically to contain fibroblasts and small blood vessels) around the chambers and that this response is blocked by antibodies that specifically neutralize VEGF (see Wood J M et al., Cancer Res. 60(8), 2178-2189, (2000); and Schlaeppi et al., J. Cancer Res. Clin. Oncol. 125, 336-342, (1999)). With this model, inhibition can be shown in the case of compounds of the formula (I).

Row | Structure (SMILES) | IC50
1 | Cc1nc2c(-c3cccc(N4CCN(C)CC4)c3)cnn2c(N)c1-c1ccc(F)cc1 [Example 80, 6-(4-Fluoro-phenyl)-5-methyl-3-[3-(4-methyl-piperazin-1-yl)-phenyl]-pyrazolo[1,5-a]pyrimidin-7-ylamine] | < 1 µM
2 | Cc1nc2c(-c3ccc(N4CCN(C)CC4)cc3)cnn2c(N)c1-c1ccc(F)c(Cl)c1 [Example 83, 6-(3-Chloro-4-fluoro-phenyl)-5-methyl-3-[4-(4-methyl-piperazin-1-yl)-phenyl]-pyrazolo[1,5-a]pyrimidin-7-ylamine] | < 1 µM
3 | Cc1nc2c(-c3cccc(N4CCN(CCO)CC4)c3)cnn2c(N)c1-c1cccc(Cl)c1 [Example 90, 2-(4-{3-[7-Amino-6-(3-chloro-phenyl)-5-methyl-pyrazolo[1,5-a]pyrimidin-3-yl]-phenyl}-piperazin-1-yl)-ethanol] | < 1 µM
4 | COc1ccc(-c2cnn3c(N)c(-c4cccc(Cl)c4)c(C)nc23)cc1OC [Example 93, 6-(3-Chloro-phenyl)-3-(3,4-dimethoxy-phenyl)-5-methyl-pyrazolo[1,5-a]pyrimidin-7-ylamine] | < 1 µM
5 | Cc1nc2c(-c3cccc(N4CCN(CCO)CC4)c3)cnn2c(N)c1-c1ccc(F)c(Cl)c1 [Example 100, 2-(4-{3-[7-Amino-6-(3-chloro-4-fluoro-phenyl)-5-methyl-pyrazolo[1,5-a]pyrimidin-3-yl]-phenyl}-piperazin-1-yl)-ethanol] | < 1 µM

target: T2, c-Kit (Homo sapiens, UniProt P10721); experiment: c-kit kinase inhibition; type: biochemical; details: Table 4
T2 construct: whole cytoplasmic domain of c-Kit (aa 544-976); made in house; host or cells: Sf9 or High Five (baculovirus)
T2 sequence (P10721 544-976): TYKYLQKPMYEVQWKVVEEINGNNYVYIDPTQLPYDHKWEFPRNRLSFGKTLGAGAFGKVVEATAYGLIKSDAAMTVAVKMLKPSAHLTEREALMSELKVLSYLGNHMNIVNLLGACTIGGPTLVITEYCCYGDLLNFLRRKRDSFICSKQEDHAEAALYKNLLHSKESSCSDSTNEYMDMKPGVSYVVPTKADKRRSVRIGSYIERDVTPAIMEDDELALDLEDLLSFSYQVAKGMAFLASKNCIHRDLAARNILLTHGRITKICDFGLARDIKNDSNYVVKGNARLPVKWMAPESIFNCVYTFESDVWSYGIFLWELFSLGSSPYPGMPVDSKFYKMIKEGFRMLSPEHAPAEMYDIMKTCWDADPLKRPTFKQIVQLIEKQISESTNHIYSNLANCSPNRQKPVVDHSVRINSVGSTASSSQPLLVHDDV

Row | Structure (SMILES) | IC50
6 | CN1CCN(c2ccc(-c3cnn4c(N)c(-c5cccc(O)c5)cnc34)cc2)CC1 [Example 1, 3-{7-Amino-3-[4-(4-methyl-piperazin-1-yl)-phenyl]-pyrazolo[1,5-a]pyrimidin-6-yl}-phenol] | < 10 µM
